What was measured:
[1] = Drug-drug interaction study in healthy volunteers: plasma PK of Compound 1 alone and with strong CYP3A4 inhibitor itraconazole; type: in vivo, human; conditions: with itraconazole 200 mg q.d. vs Compound 1 alone
[2] = Drug-drug interaction study in healthy volunteers: plasma PK of Compound 1 alone and with strong CYP3A4 inducer rifampicin; type: in vivo, human; conditions: with rifampicin 600 mg q.d. vs Compound 1 alone
[3] = Chemical stability of crystalline Form A exposed to high temperature and/or humidity (UPLC purity, XRPD solid form); type: physicochemical
Procedure: The stability of crystalline Form A was tested by exposing the crystalline material to high temperature and/or humidity for at least three weeks. After storage at high temperature and/or humidity, bulk crystalline material was sampled and dissolved in acetonitrile:water (80:20) and the purity analysed in a Waters Aquity UPLC using the following conditions: […]

C[C@@]1(c2nc(NC(=O)c3ncc(C(F)(F)F)cc3Cl)ccc2F)CO[C@@](C)(C(F)(F)F)C(N)=N1 [Compound 1, N-(6-((3R,6R)-5-amino-3,6-dimethyl-6-(trifluoromethyl)-3,6-dihydro-2H-1,4-oxazin-3-yl)-5-fluoropyridin-2-yl)-3-chloro-5-(trifluoromethyl)picolinamide]
Increase of mean AUC of Compound 1 [1]: 2-3 fold | Increase of mean Cmax of Compound 1 [1]: 25% | Decrease of mean AUC of Compound 1 [2]: 5-6 fold | Decrease of mean Cmax of Compound 1 [2]: 2.5 fold

C[C@@]1(c2nc(NC(=O)c3ncc(C(F)(F)F)cc3Cl)ccc2F)CO[C@@](C)(C(F)(F)F)C(N)=N1 [Form A, N-(6-((3R,6R)-5-amino-3,6-dimethyl-6-(trifluoromethyl)-3,6-dihydro-2H-1,4-oxazin-3-yl)-5-fluoropyridin-2-yl)-3-chloro-5-(trifluoromethyl)picolinamide]
Solid State Form ([3]; RT, exposure time 0): Crystalline | Thermodynamic stability among polymorphs ([3]; compared with Form B, hydrate Form HA and amorphous form): most thermodynamically stable polymorph

C[C@@]1(c2nc(NC(=O)c3ncc(C(F)(F)F)cc3Cl)ccc2F)CO[C@@](C)(C(F)(F)F)C(N)=N1 [Form B, N-(6-((3R,6R)-5-amino-3,6-dimethyl-6-(trifluoromethyl)-3,6-dihydro-2H-1,4-oxazin-3-yl)-5-fluoropyridin-2-yl)-3-chloro-5-(trifluoromethyl)picolinamide]
Solid form stability by XRPD analysis ([3]; same conditions as Table 12 (high temperature and/or humidity)): conversion into Form A occurred

From patent US20200048237A1, “A Free Base Oxazine Derivative in Crystalline Form” (NOVARTIS AG, priority 2017, published 2020)
